≈ marks a conversion by molar mass, not a printed value.
Columns and labels:
[1] = Cytotoxicity against human HuH7 cells infected with Hepatitis C virus genotype 1b; format: cell-based, Huh-7
[2] = system: Hepatitis C virus; assay: Antiviral activity against Hepatitis C virus genotype 1a infected in human HuH7 cells assessed as inhibition of replicon replication after 48 hrs by luciferase reporter gene assay; format: functional, cell-based, Hepacivirus hominis; conditions: subtype 1a, Huh-7, 48 h
[3] = system: Hepatitis C virus; assay: Antiviral activity against Hepatitis C virus genotype 1b infected in human HuH7 cells assessed as inhibition of replicon replication after 48 hrs by luciferase reporter gene assay; format: functional, cell-based, Hepacivirus hominis; conditions: Huh-7, 48 h
[4] = system: Hepatitis C virus; assay: Ratio of EC50 for Hepatitis C virus genotype 1b harboring NS4B V105M mutant infected in human HuH7 cells to EC50 for wild type Hepatitis C virus genotype 1b infected in human HuH7 cells; format: functional, Hepacivirus hominis, Huh-7
[5] = system: Hepatitis C virus; assay: Antiviral activity against Hepatitis C virus genotype 1b harboring NS4B H94N mutant infected in human HuH7 cells assessed as inhibition of replicon replication after 48 hrs by luciferase reporter gene assay; format: functional, cell-based, Hepacivirus hominis; conditions: Huh-7, 48 h
[6] = system: Hepatitis C virus; assay: Antiviral activity against Hepatitis C virus genotype 2a; format: functional, Hepacivirus hominis
[7] = Half life in human hepatocytes; format: ADME, cell-based, Hepatocyte
[8] = Volume of distribution at steady state in rat at 1 mg/kg, iv and 5 mg/kg, po; format: ADME, organism-based; conditions: in vivo, read-out: Vdss
[9] = AUC (0 to 24 hrs) in rat at 5 mg/kg, po; format: ADME, organism-based; set-up: time < 24 hr, dose 5 mg/kg, route oral; conditions: plasma
[10] = system: Hepatitis C virus; assay: Ratio of EC50 for Hepatitis C virus genotype 1b harboring NS4B H94N mutant infected in human HuH7 cells to EC50 for wild type Hepatitis C virus genotype 1b infected in human HuH7 cells; format: functional, Hepacivirus hominis, Huh-7
[11] = Half life in rat hepatocytes; format: ADME, cell-based, Hepatocyte
[12] = Displacement of biotinylated anti-His antibody from C-terminal 6X His-tagged Hepatitis C virus genotype 1b NS4B expressed in baculovirus-infected Sf9 cells by microplate assay; set-up: species or system Hepatitis C virus subtype 1b
[13] = Cmax in rat at 5 mg/kg, po; format: ADME, organism-based; set-up: dose 5 mg/kg, route oral; conditions: in vivo
[14] = Kinetic solubility of the compound at pH 7.4; format: physicochemical; conditions: buffer, read-out: Kinetic_solubility
[15] = system: Hepatitis C virus; assay: Antiviral activity against Hepatitis C virus genotype 1b harboring NS4B V105M mutant infected in human HuH7 cells assessed as inhibition of replicon replication after 48 hrs by luciferase reporter gene assay; format: functional, cell-based, Hepacivirus hominis; conditions: Huh-7, 48 h
[16] = Clearance in rat at 1 mg/kg, iv; format: ADME, organism-based; set-up: dose 1 mg/kg, route intravenous; conditions: in vivo
[17] = Oral bioavailability in rat at 5 mg/kg; format: ADME, organism-based; conditions: in vivo

SMILES: O=C(c1nn2c(C(F)(F)F)cc(C3CC3)cc2c1Cl)N1CCC2(OCC3(CC3)CO2)[C@@H](O)C1
- CC50 [1]: > 50000 nM
- EC50 [2]: 32.5 nM
- EC50 [3]: 8.2 nM

SMILES: O=C(c1nn2c(C(F)(F)F)cc(C3CC3)cc2c1Cl)N1CCC2(OCC3(CC3)CO2)[C@H](O)C1
- Ratio EC50 [4]: 143
- EC50 [5]: 35.9 nM
- EC50 [6]: 11300 nM
- half-life [7]: 0.833 h
- Vd [8]: 0.8 L/kg
- AUC(0-t) at 24 h [9]: 2790 ng·h/mL
- CC50 [1]: > 50000 nM
- Ratio EC50 [10]: 29.9
- EC50 [2]: 1.5 nM
- EC50 [3]: 1.2 nM
- half-life [11]: 0.467 h
- IC50 [12]: 10.2 nM
- Cmax [13]: 1130 ng/mL
- solubility kinetic [14]: 323 µg/mL (≈ 665 µM)
- EC50 [15]: 172 nM
- clearance [16]: 35.7 mL/min/kg
- bioavailability [17]: > 100%

SMILES: O=C(c1nn2c(C(F)(F)F)cc(C3CC3)cc2c1Cl)N1CCC2(OCC3(CC3)CO2)C(=O)C1
- CC50 [1]: > 50000 nM
- EC50 [2]: 5.1 nM
- EC50 [3]: 3.8 nM

SMILES: O=C1NCC2(CCN(C(=O)c3nn4c(C(F)(F)F)cc(C5CC5)cc4c3Cl)CC2)O1
- CC50 [1]: > 50000 nM
- EC50 [2]: 166 nM
- EC50 [3]: 55.4 nM

SMILES: CN1CC2(CCN(C(=O)c3nn4c(C(F)(F)F)cc(C5CC5)cc4c3Cl)CC2)OC1=O
- Ratio EC50 [4]: 6
- EC50 [5]: 42.7 nM
- EC50 [6]: 6840 nM
- half-life [7]: 1.1 h
- Vd [8]: 2.1 L/kg
- AUC(0-t) at 24 h [9]: 1060 ng·h/mL
- CC50 [1]: > 50000 nM
- Ratio EC50 [10]: 12.5
- EC50 [2]: 2 nM
- EC50 [3]: 3.4 nM
- half-life [11]: 1.33 h
- IC50 [12]: 23.4 nM
- Cmax [13]: 269 ng/mL
- solubility kinetic [14]: 267 µg/mL (≈ 584 µM)
- EC50 [15]: 20.4 nM
- clearance [16]: 56.5 mL/min/kg
- bioavailability [17]: 72%

SMILES: CCN1CC2(CCN(C(=O)c3nn4c(C(F)(F)F)cc(C5CC5)cc4c3Cl)CC2)OC1=O
- CC50 [1]: > 50000 nM
- EC50 [2]: 20.6 nM
- EC50 [3]: 5.9 nM

SMILES: O=C1OC2(CCN(C(=O)c3nn4c(C(F)(F)F)cc(C5CC5)cc4c3Cl)CC2)CN1CCO
- CC50 [1]: > 50000 nM
- EC50 [2]: 23.2 nM
- EC50 [3]: 78.5 nM

SMILES: O=C1OC2(CCN(C(=O)c3nn4c(C(F)(F)F)cc(C5CC5)cc4c3Cl)CC2)CN1CC1CC1
- CC50 [1]: > 50000 nM
- EC50 [2]: 18.1 nM
- EC50 [3]: 23.4 nM

SMILES: O=C1OC2(CCN(C(=O)c3nn4c(C(F)(F)F)cc(C5CC5)cc4c3Cl)CC2)CN1Cc1ccccc1
- CC50 [1]: > 50000 nM
- EC50 [2]: 427 nM
- EC50 [3]: 457 nM

SMILES: O=C1CC2(CCN(C(=O)c3nn4c(C(F)(F)F)cc(C5CC5)cc4c3Cl)CC2)CN1
- CC50 [1]: > 50000 nM
- EC50 [2]: 441 nM
- EC50 [3]: 1580 nM

SMILES: CN1CC2(CCN(C(=O)c3nn4c(C(F)(F)F)cc(C5CC5)cc4c3Cl)CC2)CC1=O
- CC50 [1]: > 50000 nM
- EC50 [2]: 184 nM
- EC50 [3]: 69.2 nM

SMILES: CN1C[C@@]2(CCN(C(=O)c3nn4c(C(F)(F)F)cc(C5CC5)cc4c3Cl)C[C@H]2O)OC1=O
- CC50 [1]: > 50000 nM
- EC50 [2]: 14.5 nM
- EC50 [3]: 7 nM

SMILES: CN1C[C@]2(CCN(C(=O)c3nn4c(C(F)(F)F)cc(C5CC5)cc4c3Cl)C[C@@H]2O)OC1=O
- CC50 [1]: > 50000 nM
- EC50 [2]: 3560 nM
- EC50 [3]: 3990 nM

SMILES: CN1C[C@@]2(CCN(C(=O)c3nn4c(C(F)(F)F)cc(C5CC5)cc4c3Cl)C[C@@H]2O)OC1=O
- Ratio EC50 [4]: 185
- EC50 [5]: 175 nM
- EC50 [6]: 38000 nM
- half-life [7]: 2.05 h
- Vd [8]: 2 L/kg
- AUC(0-t) at 24 h [9]: 1530 ng·h/mL
- CC50 [1]: > 50000 nM
- Ratio EC50 [10]: 27.3
- EC50 [2]: 10.9 nM
- EC50 [3]: 6.1 nM
- half-life [11]: 2.2 h
- IC50 [12]: 30.4 nM
- Cmax [13]: 344 ng/mL
- solubility kinetic [14]: 310 µg/mL (≈ 656 µM)
- EC50 [15]: 1130 nM
- clearance [16]: 25.7 mL/min/kg
- bioavailability [17]: 49%

SMILES: CN1C[C@]2(CCN(C(=O)c3nn4c(C(F)(F)F)cc(C5CC5)cc4c3Cl)C[C@H]2O)OC1=O
- CC50 [1]: > 50000 nM
- EC50 [2]: 16.7 nM
- EC50 [3]: 7.2 nM

— ChEMBL document CHEMBL3259645, “Design and synthesis of spirocyclic compounds as HCV replication inhibitors by targeting viral NS4B protein” (Bioorg Med Chem Lett, 2014)
